Data set [1] addresses GRG1 EPSP synthase variant EVO3, SEQ ID NO:37 (Q-loop core position 2 K, 10 G, 14 P, 16 L) (Pseudomonas putida, UniProt Q683S1, D85K/I93G/I99L/T97P). As to the kind of experiment: EPSP synthase kinetics (AMPLEX Red fluorescence assay). The format is biochemical. The following applies: in words.
Description: (§3) Extracts were typically incubated with all assay components except shikimate-3-phosphate and AMPLEX™ Red for 5 minutes at room temperature, and assays were started by adding shikimate-3-phosphate and AMPLEX® Red.
(§4) Following full determination of kinetic parameters, the kinetic constants were determined as follows, adjusting for the quantity of protein determined by either antibody dot-blot analysis as described herein, or by Bradford Assay, as known in the art.
Data set [2] deals with GRG1 EPSP synthase variant EVO4, SEQ ID NO:43 (Q-loop core position 2 N, 10 I, 14 A, 16 I) (Pseudomonas putida, UniProt Q683S1, D85N/T97A). The description is as above. The class given is biochemical. Conditions: in words.
Description: as §3, §4
Data set [3] has as its target GRG1 EPSP synthase variant GRG1(EVO1), SEQ ID NO:28 (Q-loop core position 10 M, 12 L, 16 F) (Pseudomonas putida, UniProt Q683S1, I93M/I99F/M95L). Described as above. The class given is biochemical. Conditions: in words, relative to GRG1.
Description: as §3, §4
For data set [4], the target named is GRG1 EPSP synthase variant EVO2, SEQ ID NO:5 (clone L1-C; Q-loop core position 12 A) (Pseudomonas putida, UniProt Q683S1, M95A). The data set is described as above. The following applies: in words, relative to GRG1. The format is biochemical.
Description: as §3, §4
Data set [5] has as its system maize plants expressing GRG1(EVO5). As to the kind of experiment: Glyphosate spray of transgenic maize plants. The format is in vivo. Conditions: 14 mM glyphosate spray. The text has this:
(§1) The grg1 (evo5) gene and grg1 (evo6) genes were each cloned into a plant expression vector suitable for Agrobacterium-mediated transformation, such vector containing at least (1) a promoter capable of expression in a plant cell, (2) a chloroplast peptide leader coding sequence, (3) a transcriptional terminator. The resulting clones, pAX4014 and pAX4032 respectively, were transferred to Agrobacterium as known in the art and described herein, and the resulting Agrobacterium strain used to develop transgenic maize callus and ultimately transgenic maize plants.
(§2) To transgenic plants were sprayed with glyphosate formulations of 14 mM glyphosate after adaptation to soil, and the resistance to the herbicide was scored after two weeks relative to non-transgenic controls.

Data set [6] relates to maize plants expressing GRG1(EVO6). As to the kind of experiment: Glyphosate spray of transgenic maize plants. The format is in vivo. Conditions: 14 mM glyphosate spray.
Text: as §1, §2

Another data set concerns EPSP synthase. Here is the method:
For any one glyphosate concentration, EPSP synthase activity was measured as a function of a broad range of PEP concentrations. The data were fit to the Michaelis-Menten equation using […]® software (Synergy Software) and used to determine the Km (Km apparent) of the EPSP synthase at that glyphosate concentration.

The test system of data set [7] is BL21*DE3 competent E. coli cells. Briefly: Screening for glyphosate resistance on plates (growth on M63+ agar with glyphosate). The format is cell-based. The following applies: kanamycin, IPTG, glyphosate concentration as in value. The procedure:
Library ligations were transformed into BL21*DE3 competent E. coli cells (Invitrogen). The transformations were performed according to the manufacturer's instructions with the following modifications. After incubation for 1 hour at 37° C. in SOC medium, the cells were sedimented by centrifugation (5 minutes, 1000×g, 4° C.). The cells were washed with 1 ml M63+, centrifuged again, and the supernatant decanted. The cells were washed a second time with 1 ml M63+ and resuspended in 200 ul M63+.
For selection of mutant GRG1 enzymes conferring glyphosate resistance in E. coli, the cells were plated onto M63+ agar medium plates containing 50 mM glyphosate, 0.05 mM IPTG (isopropyl-beta-D-thiogalactopyranoside), and 50 ug/ml kanamycin. M63+ medium contains 100 mM KH2PO4, 15 mM (NH4)2SO4, 50 μM CaCl2, 1 μM FeSO4, 50 μM MgCl2, 55 mM glucose, 25 mg/liter L-proline, 10 mg/liter thiamine HCl, sufficient NaOH to adjust the pH to 7.0, and 15 g/liter agar. The plates were incubated for 36 hours at 37° C.

How the values of data set [8] were obtained:
DNA from grg1 (evo5) was mutagenized by PCR as known in the art, and cloned into pRSF1b (Invitrogen), and a library of mutagenized clones identified by virtue of growth on 50 mM glyphosate.

This note sets out measurements from patent US20070295251A1, “EPSP SYNTHASES: COMPOSITIONS AND METHODS OF USE” (Athenix Corporation, priority 2006, published 2007).

In the case of `C=C(OP(=O)(O)O)C(=O)O` [PEP, phosphoenolpyruvic acid], the “Km for PEP” value was “virtually identical to GRG1” in data set [1] (vs GRG1) and “reasonable, though somewhat elevated” in [2].
As to `O=C(O)CNCP(=O)(O)O` [glyphosate, N-phosphonomethylglycine], the Ki for glyphosate result in [3], in [4], in [1] (relative to GRG1) and in data set [2] (relative to GRG1) was “improved” each time. Moreover, the “Seed Set” value in data set [5] and in data set [6] was “YES” in each case. Moreover, the “Survival at 2 weeks post-spray” value in data set [5] and in data set [6] was “YES” each time. In addition, the Chlorosis entry in data set [5] (two weeks) and in data set [6] (two weeks) was “NONE” in each case. For the same molecule, the Stunting result in [5] (two weeks) and in data set [6] (two weeks) was “NONE” in each case.
“GRG1(EVO7): variant after mutagenesis of grg1 (evo6) in the Q-loop region (SEQ ID NO:64) (ITSEGVKPVAPFIKCGESGLSVRAFTPIVALSK; GRG1 variant - GRG1(4S-39))”: in the data set on EPSP synthase, the “kinetic properties / parameters (in words)” value was “further improved kinetic properties over GRG1(EVO6)”. Moreover, the “growth on glyphosate plates (glyphosate resistance in E. coli)” value in data set [7] is “glyphosate resistant”.
The matching figures for “GRG1(EVO8): variant after mutagenesis of grg1 (evo6) in the Q-loop region (SEQ ID NO:65) (ITSEGVKPVAPFIKCGESGLSGRMFPPIVALSK; GRG1 variant - GRG1(4S-60))”: “further improved kinetic properties over GRG1(EVO6)” and “glyphosate resistant”.

B1: GRG1(EVO5): GRG1 Q-loop variant from Library 4 (SEQ ID NO:56) (protein)
chain: MKVTIQPGDLTGIIQSPASKSSMQRACAAALVAKGISEIINPGHSNDDKAARDIVSRLGARLEDQPDGSLQITSEGVKPVAPFIECGESGLSSRIFTPLVALSKEEVTIKGSGSLVTRPMDFFDEILPHLGVKVKSNQGKLPLVIQGPLKPADVTVDGSLSSQFLTGLLLAYAAADASDVAIKVTNLKSRPYIDLTLDVMKRFGLKTPENRNYEEFYFKAGNVYDETKMQRYTVEGDWSGGAFLLVAGAIAGPITVRGLDIASTQADKAIVQALMSANAGIAIDAKEIKLHPADLNAFEFDATDCPDLFPPLVALASYCKGETKIKGVSRLAHKESDRGLTLQDEFGKMGVEIHLEGDLMRVIGGKGVKGAEVSSRHDHRIAMACAVAALKAVGETTIEHAEAVNKSYPDFYSDLKQLGGVVSLNHQFNFS
modifications: GRG1 variant - GRG1(EVO5)
For B1, the “Km / affinity for PEP (in words)” value with EPSP synthase is “good affinity for PEP”. In the data set on EPSP synthase (relative to GRG1), the “glyphosate resistance (in words, kinetic analysis)” value is reported as “improved glyphosate resistance”.

B2: GRG1(5.2.B6): GRG1(EVO5) with V351 to A change (SEQ ID NO:58) (protein)
chain: MKVTIQPGDLTGIIQSPASKSSMQRACAAALVAKGISEIINPGHSNDDKAARDIVSRLGARLEDQPDGSLQITSEGVKPVAPFIECGESGLSSRLFTPLVALSKEEVTIKGSGSLVTRPMDFFDEILPHLGVKVKSNQGKLPLVIQGPLKPADVTVDGSLSSQFLTGLLLAYAAADASDVAIKVTKLKSRPYIDLTLDVMKRFGLKTPENRNYEEFYFKAGNVYDETKMQRYTVEGDWSGGAFLLVAGAIAGPITVRGLDIASTQADKAIVQALMSANAGIAIDAKEIKLHPADLNAFEFDATDCPDLFPPLVALASYCKGETKIKGVSRLAHKESDRGLTLQDEFGKMGVEIHLEGDLMRVIGGKGVKGAEVSSRHDHRIAMACAVAALKAVGETTIEHAEAVNKSYPDFYSDLKQLGGVVSLNHQFNFS
modifications: GRG1 variant - GRG1(EVO7)
B2: the soluble protein result in data set [8] is listed as “substantial increase in soluble protein”.

B3: GRG1(EVO6): GRG1(EVO5) with N186 to K change (SEQ ID NO:57) (protein)
chain: MKVTIQPGDLTGIIQSPASKSSMQRACAAALVAKGISEIINPGHSNDDKAARDIVSRLGARLEDQPDGSLQITSEGVKPVAPFIECGESGLSSRIFTPLVALSKEEVTIKGSGSLVTRPMDFFDEILPHLGVKVKSNQGKLPLVIQGPLKPADVTVDGSLSSQFLTGLLLAYAAADASDVAIKVTKLKSRPYIDLTLDVMKRFGLKTPENRNYEEFYFKAGNVYDETKMQRYTVEGDWSGGAFLLVAGAIAGPITVRGLDIASTQADKAIVQALMSANAGIAIDAKEIKLHPADLNAFEFDATDCPDLFPPLVALASYCKGETKIKGVSRLAHKESDRGLTLQDEFGKMGVEIHLEGDLMRVIGGKGVKGAEVSSRHDHRIAMACAVAALKAVGETTIEHAEAVNKSYPDFYSDLKQLGGVVSLNHQFNFS
modifications: GRG1 variant - GRG1(EVO6)
For the molecule B3, the soluble protein result in [8] is given as “substantial increase in soluble protein”.
